The values below come from paper PMC11206987, “Investigation of the Efficacy of Benzylidene-3-methyl-2-thioxothiazolidin-4-one Analogs with Antioxidant Activities on the Inhibition of Mushroom and Mammal Tyrosinases” (Molecules, 2024).

For orientation: IC50 means the point on the concentration scale where inhibition reaches its midpoint.

Data set [1] deals with B16F10 cells. Put plainly: Melanin content assay in B16F10 cells. The data set is classed as cell-based, murine. The following applies: 72 h. How it is done:
We examined whether the ability of analogs 1, 3, and 5 to inhibit intracellular tyrosinase activity could affect intracellular melanin levels. B16F10 cells were utilized as mammalian cells. IBMX and α-MSH were used at 200 µM and 1 µM, respectively, to increase melanin biosynthesis. […] For the intracellular melanin content determination, the absorbance at 405 nm was evaluated after 72 h of incubation.
The effect of BMTTZD analogs on melanin biosynthesis was investigated following a previously described method. A 6-well microplate containing 1 × 10^5 B16F10 cells/well was cultivated for 23 h under conditions identical to those of the cell culture. […] After exposure to IBMX and α-MSH, B16F10 cells were cultivated for 72 h at 37 °C. The cells were rinsed 2 times with PBS, treated with 1N-NaOH aqueous solution (100 µL), and cultivated at 60 °C for 1 h. The lysates were moved to a microplate. At 405 nm, the well absorbance was measured utilizing a VersaMax® reader. Each experiment was carried out three times independently.

The subject of data set [2] is B16F10 cells. Put plainly: Cell cytotoxicity test (EZ-Cytox). Type of data set: cell-based, murine. The following applies: 2.5–20 µM, 48 and 72 h. How it is done:
Because analogs 1–3 and 5 exerted potent mushroom tyrosinase inhibitory activities, their effects on anti-melanogenic and cellular tyrosinase activities were evaluated in B16F10 murine cells. Prior to examining their cellular activity, their cell viabilities were investigated. Cell viability was evaluated at 48 and 72 h after treatment with five different concentrations of analogs.
The effect on B16F10 cytotoxicity was assessed following a previously described method. Cells (1 × 10^4 cells/well of a 96-well plate) were cultivated for 24 h with 5% CO2 at 37 °C. The cells were exposed to the BMTTZD analogs (test concentrations: 20, 10, 5, 2.5, and 0 µM) and cultivated with 5% CO2 at 37 °C for 72 h. An EZ-Cytox solution (10 µL; EZ-500, DoGenBio, Seoul, Republic of Korea) was exposed to each well, and the plate was cultivated for 2 h. Cell viability was calculated from the well absorbance measured at 450 nm utilizing a reader (VersaMax®).

Data set [3] addresses T1, B16F10 cellular tyrosinase (Mus musculus, UniProt P11344).
T1 construct: host or cells: B16F10 cells
T1 sequence (P11344 19-533): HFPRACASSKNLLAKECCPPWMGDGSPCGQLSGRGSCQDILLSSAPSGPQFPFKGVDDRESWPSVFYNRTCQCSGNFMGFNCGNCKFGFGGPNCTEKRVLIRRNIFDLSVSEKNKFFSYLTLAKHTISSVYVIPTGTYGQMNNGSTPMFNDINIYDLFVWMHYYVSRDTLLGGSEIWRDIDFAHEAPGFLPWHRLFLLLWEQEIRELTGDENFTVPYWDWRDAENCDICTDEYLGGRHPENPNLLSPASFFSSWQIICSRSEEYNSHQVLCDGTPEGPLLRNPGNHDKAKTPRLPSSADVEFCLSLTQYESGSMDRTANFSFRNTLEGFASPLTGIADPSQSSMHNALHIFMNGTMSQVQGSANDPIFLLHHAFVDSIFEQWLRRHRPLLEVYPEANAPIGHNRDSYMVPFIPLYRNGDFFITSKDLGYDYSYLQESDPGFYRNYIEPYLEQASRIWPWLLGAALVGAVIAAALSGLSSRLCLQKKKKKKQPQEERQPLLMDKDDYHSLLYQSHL
Briefly: In situ cellular tyrosinase activity assay using L-dopa staining. Type of data set: cell-based, murine. The note with it: 72 h. How it is done: Because tyrosinase plays a critical role in melanogenesis, in situ intracellular tyrosinase activity was measured. The in situ intracellular tyrosinase activity was evaluated in B16F10 cells following a previously reported procedure. Stimulators (α-MSH plus IBMX) were exposed to cells to raise tyrosinase activity levels, and analogs 1, 3, and 5 were treated at 20, 10, and 5 µM for 72 h. After fixation and permeabilization using paraformaldehyde and Triton X-100, the cells were stained with L-dopa.
A 24-well plate containing 1 × 10^3 B16F10 cells/well was cultivated for 24 h under conditions identical to those of the cell culture. […] The cells were then cultivated under conditions identical to those of the cell culture for 72 h. Cultivated cells were fixed for 40 min with paraformaldehyde (4%), washed 2 times with PBS, and permeabilized with Triton X-100 (0.1%) for 2 min. After washing 2 times with PBS, the cells in the 24-well plate were stained with a 2 mM L-dopa aqueous solution (500 µL/well) for 2 h at 37 °C. Staining was photographed and analyzed utilizing a camera connected to a microscope (Motic, Hong Kong).

The subject of data set [4] is mushroom tyrosinase. Put plainly: Mushroom tyrosinase inhibition assay (dopachrome, 475 nm). The following applies: for IC50: mushroom tyrosinase. The data set is classed as biochemical. How it is done: The ability of the BMTTZD analogs to inhibit mushroom tyrosinase was evaluated in the presence of L-dopa and L-tyrosine as previously described.

The structures appear in SMILES notation. Read-outs that look alike come from different tables or passages of the source.

Regarding `CN1C(=O)/C(=C/c2ccc(O)cc2O)SC1=S` [Analog 3, (Z)-5-(2,4-Dihydroxybenzylidene)-3-methyl-2-thioxothiazolidin-4-one], the “decrease of intracellular melanin contents” value in data set [1] (20 µM, IBMX plus α-MSH (raised melanin 4.4-fold)) stood at 2.0 fold. In data set [1] (5, 10, 20 µM), the “effect on intracellular melanin contents enhanced by IBMX plus α-MSH” value is “significantly reduced the melanin contents”. In data set [2], the “cytotoxicity (cell viability)” value is “did not exhibit cytotoxicity at ≤20 µM”. For the same compound, the “in situ intracellular tyrosinase inhibition compared with kojic acid” value in data set [3] (20 µM) is given as “tyrosinase inhibition stronger than did kojic acid”. In data set [3] (analogs 5, 10, 20 µM, kojic acid 20 µM), the “effect on stimulator-raised in situ intracellular tyrosinase activity (L-dopa staining)” value is on record as “concentration-dependently reduced the stimulator-enhanced intracellular tyrosinase inhibition”. In addition, the “tyrosinase inhibition, fold stronger than kojic acid” value in data set [4] (substrate L-dopa) was 22 fold. The IC50 in data set [4] (substrate L-dopa, read-out: IC50 (Mean ± SEM, µM) L-Dopa) stood at 1.12 ± 0.06 µM; in data set [4] (substrate L-tyrosine, read-out: IC50 (Mean ± SEM, µM) L-Tyrosine), 0.08 ± 0.02 µM. Further, the “tyrosinase inhibition, times stronger than kojic acid” value in data set [4] (substrate L-tyrosine) is reported as 220 times.
